The results in this text go back to patent US7884120B2, “2,4,5-trisubstituted imidazoles and their use as anti-microbial agents” (Lorus Therapeutics Inc., priority 2002, dated 2011).

In brackets after ≈: the same amount, converted by molar mass. Some results are limits rather than exact numbers.

The subject of one assay is S. aureus, MRSA 1A-218, 1A-318, 1B-374, 1B-315, 1B-185, 1B387 and MSSA ATCC-6538, ATCC-29213. The experiment in a line: MIC by standard microdilution method against S. aureus (MRSA and MSSA strains). The format is cell-based. As to conditions: Staphylococcus aureus; against all 8 strains of S. aureus tested except where indicated; microdilution, Ca-MHB, 35° C., 24 hr; read-out: MIC. As for the experimental part: A standard microdilution method (NCCLS, 2000; Document M7-A5) was used to determine the minimum inhibitory concentrations (MICs) against S. aureus, methicillin-resistant strains (MRSA); 1A-218, 1A-318, 1B-374, 1B-315, 1B-185, 1B387 (Simor et al. 1999 Can Commun Dis Rep; 25:105-108) and methicillin-sensitive strains (MSSA); ATCC-6538 and ATCC-29213. The MICs of some compounds were also determined against other Gram-positive bacteria: Enterococcus faecium (ATCC 51559), Enterococcus faecalis (ATCC-51299, ATCC-29212) and Staphylococcus epidermidis (ATCC-35983).
Mueller-Hinton broth (MHB) is recommended as the medium of choice for susceptibility testing of commonly isolated, rapidly growing aerobic organisms such as the Gram-positive bacteria included in this study. A “cation-adjusted Mueller-Hinton broth” (Ca-MHB) was prepared by first preparing standard MHB from a dehydrated base as recommended by the manufacturer.
Single colonies from fresh agar plates of the different bacterial cultures were sub-cultured overnight in 3 ml of Tryptic soy broth (TSB) at 37° C. with shaking at 250 RPM. After 18-20 hours of incubation, the absorbance at λ=600 nm (OD600) were determined for each culture and adjusted to a final OD600=0.1 (4.2×10^7 cfu/ml). Bacterial suspensions were then diluted 1:200 in sterile Ca-MHB for the in vitro susceptibility test, with each well of the microtitre plate containing approximately 2×10^5 cfu/ml.
Stock solutions of the different test compounds were prepared at concentrations of 1,280 μg/ml, 640 μg/ml, or 320 μg/ml in 50% DMSO (dimethyl sulfoxide). Serial two-fold dilutions were then prepared in 50% DMSO (the working concentrations were 1:10 of the stock concentrations in 100 μl culture suspensions). The filled microtitre plates were sealed in plastic bags and incubated at 35° C. for 24 hr in an ambient air incubator with shaking at 250 RPM. MIC values were determined as the lowest concentration where complete inhibition of the visible bacterial growth was observed by the unaided eye and confirmed by the measurement of the optical density (OD600).
(In general: Dilution methods test growth across graded concentrations, often in twofold steps.)
The term MIC denotes the smallest concentration in the dilution series that meets the test's criterion for growth inhibition. For the compound `CC(=O)n1c(-c2c(C)n(C(C)=O)c3ccccc23)nc(-c2ccccc2)c1-c1ccccc1` [Compound 5], the MIC was more than 128 µg/mL.

Take `Fc1ccc(-c2[nH]c(-c3c[nH]c4ccc(Br)cc34)nc2-c2ccccc2)cc1` [Compound 36]: the MIC is 2 µg/mL (≈ 4.63 µM).

With `Brc1ccc(-c2[nH]c(-c3c[nH]c4ccc(Br)cc34)nc2-c2ccccc2)cc1` [Compound 43], the MIC is 4 µg/mL (≈ 8.11 µM).

For the compound `Brc1ccc2[nH]cc(-c3nc(-c4ccccc4)c(-c4ccccc4)[nH]3)c2c1` [Compound 6], the MIC worked out at 4 µg/mL (≈ 9.65 µM).

With `COC(=O)c1ccc2c(-c3nc(-c4ccccc4)c(-c4ccccc4)[nH]3)c[nH]c2c1` [Compound 83], the MIC was more than 128 µg/mL.

With `Cc1[nH]c2ccccc2c1-c1nc(-c2ccc(N(C)C)cc2)c(-c2ccc(N(C)C)cc2)[nH]1` [Compound 11], the MIC was found to be 8 µg/mL (≈ 18.4 µM).

With `Cc1[nH]c2ccccc2c1-c1nc(-c2ccccc2)c(-c2ccc(F)cc2)[nH]1` [Compound 35], the MIC is 8 µg/mL (≈ 21.8 µM).

In the case of `COc1ccc(-c2nc(-c3c[nH]c4ccc(Br)cc34)[nH]c2-c2ccc(OC)cc2)cc1` [Compound 10], the MIC came to 4 µg/mL (≈ 8.43 µM).

The next assay concerns MRSA 1B-387. Nature of the assay: In vivo anti-bacterial activity, ICR mice inoculated I.P. with MRSA, oral treatment. The conditions noted are these: Staphylococcus aureus. As for the experimental part: For in vivo studies, groups of 5-10 female ICR mice (6-7 weeks) were inoculated intraperitonially with 3-8×10^7 CFU MRSA 1B-387 per mouse in 400 μl of 5% mucin. The test compounds at concentrations of 50 or 100 mg/kg were administered orally immediately after the bacterial inoculation and again 3 hours later. The selected dosages were administered twice daily throughout the experiment. The efficacy of the treatment was evaluated by comparison of mortality between the experimental and control groups (Table 5).
`CC(=O)n1c(-c2c(C)n(C(C)=O)c3ccccc23)nc(-c2ccccc2)c1-c1ccccc1` [Compound 5] had a responders at 100 mg/kg of 20%.

As to `Fc1ccc(-c2[nH]c(-c3c[nH]c4ccc(Br)cc34)nc2-c2ccccc2)cc1` [Compound 36], the responders at 100 mg/kg is 80%.

`Brc1ccc(-c2[nH]c(-c3c[nH]c4ccc(Br)cc34)nc2-c2ccccc2)cc1` [Compound 43]: the responders at 100 mg/kg is 80%.

In the case of `Brc1ccc2[nH]cc(-c3nc(-c4ccccc4)c(-c4ccccc4)[nH]3)c2c1` [Compound 6], the responders at 100 mg/kg is 40%.

With `COC(=O)c1ccc2c(-c3nc(-c4ccccc4)c(-c4ccccc4)[nH]3)c[nH]c2c1` [Compound 83], the responders at 100 mg/kg was 20%.

Turning to `Cc1[nH]c2ccccc2c1-c1nc(-c2ccc(N(C)C)cc2)c(-c2ccc(N(C)C)cc2)[nH]1` [Compound 11], the responders at 100 mg/kg came to 0%.

Regarding `Cc1[nH]c2ccccc2c1-c1nc(-c2ccccc2)c(-c2ccc(F)cc2)[nH]1` [Compound 35], the responders at 100 mg/kg is 4%.

`COc1ccc(-c2nc(-c3c[nH]c4ccc(Br)cc34)[nH]c2-c2ccc(OC)cc2)cc1` [Compound 10]: the responders at 100 mg/kg was 100%.

Staying with this assay, now noted: Staphylococcus aureus, read-out: Survival %.
Consider `CC(=O)n1c(-c2c(C)n(C(C)=O)c3ccccc23)nc(-c2ccccc2)c1-c1ccccc1` [Compound 5], for which the responders at 100 mg/kg came to 20%.

In the case of `Fc1ccc(-c2[nH]c(-c3c[nH]c4ccc(Br)cc34)nc2-c2ccccc2)cc1` [Compound 36], the responders at 100 mg/kg came out at 80%.

As for `Brc1ccc(-c2[nH]c(-c3c[nH]c4ccc(Br)cc34)nc2-c2ccccc2)cc1` [Compound 43], the responders at 100 mg/kg worked out at 80%.

Regarding `Brc1ccc2[nH]cc(-c3nc(-c4ccccc4)c(-c4ccccc4)[nH]3)c2c1` [Compound 6], the responders at 100 mg/kg worked out at 40%.

As to `COC(=O)c1ccc2c(-c3nc(-c4ccccc4)c(-c4ccccc4)[nH]3)c[nH]c2c1` [Compound 83], the responders at 100 mg/kg was determined as 20%.

As to `Cc1[nH]c2ccccc2c1-c1nc(-c2ccc(N(C)C)cc2)c(-c2ccc(N(C)C)cc2)[nH]1` [Compound 11], the responders at 100 mg/kg turned out to be 0%.

On to `Cc1[nH]c2ccccc2c1-c1nc(-c2ccccc2)c(-c2ccc(F)cc2)[nH]1` [Compound 35], for which the responders at 100 mg/kg stood at 40%.

With `COc1ccc(-c2nc(-c3c[nH]c4ccc(Br)cc34)[nH]c2-c2ccc(OC)cc2)cc1` [Compound 10], the responders at 100 mg/kg stood at 100%.

In another assay the test system is Candida albicans (ATCC 24433). The experiment in a line: In vitro anti-fungal activity, microdilution against Candida albicans. The format is cell-based. The conditions noted are these: ATCC24433, C. albicans ATCC 24433. As for the experimental part:
A microdilution method was used to determine the anti-fungal activity of different test compounds against Candida albicans (ATCC 24433) at 25 μg/ml. RPMI-1640 broth is recommended as the medium of choice for susceptibility testing of C. albicans (NCCLS, 2002; Document M27-A2) and was used in this study. The broth was buffered to pH 7.0 and then sterilized using a 250 ml vacuum driven disposable 0.45 um filtration system.
C. albicans was sub-cultured from a −80° C. stock onto Sabouraud dextrose agar and incubated for 24-48 hrs at 37° C. The fungi inoculum was prepared by picking five colonies of ˜1 mm in diameter from 24-48 hr old cultures. The colonies were then suspended in 5 ml of sterile normal saline (8.5 g/L NaCl; 0.85% saline) diluted 1:50 and further diluted 1:20 with medium to obtain two-fold inoculum (1-5×10^3 cfu/ml). […] The microtitre plates were then sealed in plastic bags and incubated at 35° C. for 24-48 hrs in an ambient air incubator with shaking at 250 RPM.
Inhibition of visible growth of C. albicans in the microtitre plate wells was assessed by the unaided eye and confirmed by OD600 reading. […] The MIC values of compounds with significant activity are also included.
Compound `Fc1ccc(-c2[nH]c(-c3c[nH]c4ccc(Br)cc34)nc2-c2ccccc2)cc1` [Compound 36] registered an MIC of 16 µg/mL (≈ 37 µM).

`Brc1ccc(-c2[nH]c(-c3c[nH]c4ccc(Br)cc34)nc2-c2ccccc2)cc1` [Compound 43] gave an MIC of 8 µg/mL (≈ 16.2 µM).

The same assay, now with this note: ATCC24433, C. albicans ATCC 24433, compound 25 μg/ml, 24 h, read-out: Inhibition (%) after 24 h.
For orientation: inhibition means the change of the read-out against control, counted positive when it falls. In the case of `CC(=O)n1c(-c2c(C)n(C(C)=O)c3ccccc23)nc(-c2ccccc2)c1-c1ccccc1` [Compound 5], the inhibition at 25 µg/mL was 0%.

On to `Fc1ccc(-c2[nH]c(-c3c[nH]c4ccc(Br)cc34)nc2-c2ccccc2)cc1` [Compound 36], for which the inhibition at 25 µg/mL amounted to 86%.

As to `Brc1ccc(-c2[nH]c(-c3c[nH]c4ccc(Br)cc34)nc2-c2ccccc2)cc1` [Compound 43], the inhibition at 25 µg/mL amounted to 87%.

For the compound `Brc1ccc2[nH]cc(-c3nc(-c4ccccc4)c(-c4ccccc4)[nH]3)c2c1` [Compound 6], the inhibition at 25 µg/mL turned out to be 0%.

For the compound `COC(=O)c1ccc2c(-c3nc(-c4ccccc4)c(-c4ccccc4)[nH]3)c[nH]c2c1` [Compound 83], the inhibition at 25 µg/mL was found to be 0%.

Regarding `Cc1[nH]c2ccccc2c1-c1nc(-c2ccc(N(C)C)cc2)c(-c2ccc(N(C)C)cc2)[nH]1` [Compound 11], the inhibition at 25 µg/mL was found to be 27%.

Regarding `Cc1[nH]c2ccccc2c1-c1nc(-c2ccccc2)c(-c2ccc(F)cc2)[nH]1` [Compound 35], the inhibition at 25 µg/mL was 100%.

For `COc1ccc(-c2nc(-c3c[nH]c4ccc(Br)cc34)[nH]c2-c2ccc(OC)cc2)cc1` [Compound 10], the inhibition at 25 µg/mL was found to be 0%.

The assay is the same for the next values; noted with them: ATCC24433, C. albicans ATCC 24433, compound 25 μg/ml, 48 h, read-out: Inhibition (%) after 48 h.
Take `CC(=O)n1c(-c2c(C)n(C(C)=O)c3ccccc23)nc(-c2ccccc2)c1-c1ccccc1` [Compound 5]: the inhibition at 25 µg/mL worked out at 0%.

Regarding `Fc1ccc(-c2[nH]c(-c3c[nH]c4ccc(Br)cc34)nc2-c2ccccc2)cc1` [Compound 36], the inhibition at 25 µg/mL came to 97%.

For `Brc1ccc(-c2[nH]c(-c3c[nH]c4ccc(Br)cc34)nc2-c2ccccc2)cc1` [Compound 43], the inhibition at 25 µg/mL was determined as 59%.

On to `Brc1ccc2[nH]cc(-c3nc(-c4ccccc4)c(-c4ccccc4)[nH]3)c2c1` [Compound 6], for which the inhibition at 25 µg/mL is 0%.

For the compound `COC(=O)c1ccc2c(-c3nc(-c4ccccc4)c(-c4ccccc4)[nH]3)c[nH]c2c1` [Compound 83], the inhibition at 25 µg/mL was 0%.

For the compound `Cc1[nH]c2ccccc2c1-c1nc(-c2ccc(N(C)C)cc2)c(-c2ccc(N(C)C)cc2)[nH]1` [Compound 11], the inhibition at 25 µg/mL stood at 28%.

On to `Cc1[nH]c2ccccc2c1-c1nc(-c2ccccc2)c(-c2ccc(F)cc2)[nH]1` [Compound 35], for which the inhibition at 25 µg/mL was 73%.

With `COc1ccc(-c2nc(-c3c[nH]c4ccc(Br)cc34)[nH]c2-c2ccc(OC)cc2)cc1` [Compound 10], the inhibition at 25 µg/mL worked out at 0%.
